In US9695155B2, “Herbicidal substituted pyrimidinyloxy benzene compounds” (E. I. DU PONT DE NEMOURS AND COMPANY, priority 2013, dated 2017):

Assays:
[1] = system: pigweed; assay: Test C postemergence; type: in vivo, Amaranthus retroflexus
Procedure, shortened: (§1)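 Rated visually on 0–100 (100 = complete control) after 13–15 days under glass. Treatments went onto freshly seeded loam/sand soil or onto emerged plants at the 1- to 4-leaf stage, using a surfactant-containing solvent formulation.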

[2] = system: soybean; assay: Test C postemergence; type: in vivo, Glycine max
Procedure, shortened: as §1

[3] = system: oilseed rape; assay: Test C postemergence; type: in vivo, Brassica napus
Procedure, shortened: as §1

[4] = system: ragweed; assay: Test C postemergence; type: in vivo, Ambrosia elatior
Procedure, shortened: as §1

[5] = system: kochia; assay: Test C postemergence; type: in vivo, Kochia scoparia
Procedure, shortened: as §1

[6] = system: johnsongrass; assay: Test C postemergence; type: in vivo, Sorghum halepense
Procedure, shortened: as §1

[7] = system: galium; assay: Test C postemergence; type: in vivo, Galium aparine
Procedure, shortened: as §1

[8] = system: wheat, winter; assay: Test C postemergence; type: in vivo, Triticum aestivum
Procedure, shortened: as §1

[9] = system: velvetleaf; assay: Test C postemergence; type: in vivo, Abutilon theophrasti
Procedure, shortened: as §1

[10] = system: giant foxtail; assay: Test A preemergence; type: in vivo, Setaria faberii; conditions: 0 to 100 scale where 0 is no effect and 100 is complete control; for Foxtail, Giant plant response rating: 500 g ai/ha
Procedure, shortened: (§2)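 Injury scores run from 0, no effect, to 100, complete control, judged by eye against untreated plants roughly 10 days after treatment. Chemicals carried a surfactant in a non-phytotoxic solvent and went onto loam–sand soil preemergence or onto one- to two-leaf seedlings postemergence.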

[11] = system: waterhemp; assay: Test C postemergence; type: in vivo, Amaranthus rudis
Procedure, shortened: as §1

[12] = system: corn; assay: Test A postemergence; type: in vivo, Zea mays; conditions: 0 to 100 scale where 0 is no effect and 100 is complete control
Procedure, shortened: as §2

[13] = system: blackgrass; assay: Test C postemergence; type: in vivo, Alopecurus myosuroides
Procedure, shortened: as §1

[14] = 16 g ai/ha, postemergence, 0 is no effect, 100 is complete control
[15] = 125 g ai/ha, postemergence, visual rating, scale 0 to 100 (0 no effect, 100 complete control)
[16] = Postemergence, 62 g ai/ha, scale 0 to 100 (0 no effect, 100 complete control)

With Clc1cnc(Oc2cccc(Br)c2-n2cc(I)nn2)nc1 [Compound 117] the “Plant response rating (0 to 100), Pigweed” value [1, 14] was 80, the “Plant response rating, Pigweed” value [1, 15] was 90 and the “Plant response rating, Pigweed” value [1, 16] was 85. The “Plant response rating (0 to 100), Soybean” value [2, 14] was 35, the “Plant response rating, Soybean” value [2, 15] was 50 and the “Plant response rating, Soybean” value [2, 16] was 50. The “Plant response rating (0 to 100), Oilseed Rape” value [3, 14] was 25, the “Plant response rating, Oilseed Rape” value [3, 15] was 70 and the “Plant response rating, Oilseed Rape” value [3, 16] was 60. The “Plant response rating (0 to 100), Ragweed” value [4, 14] was 25, the “Plant response rating, Ragweed” value [4, 15] was 60 and the “Plant response rating, Ragweed” value [4, 16] was 35. For the same compound, the “Plant response rating (0 to 100), Kochia” value [5, 14] was 90, the “Plant response rating, Kochia” value [5, 15] was 100 and the “Plant response rating, Kochia” value [5, 16] was 100. For the same compound, the “Plant response rating (0 to 100), Johnsongrass” value [6, 14] was 0, the “Plant response rating, Johnsongrass” value [6, 15] was 5 and the “Plant response rating, Johnsongrass” value [6, 16] was 5. The “Plant response rating (0 to 100), Galium” value [7, 14] was 80, the “Plant response rating, Galium” value [7, 15] was 80 and the “Plant response rating, Galium” value [7, 16] was 70. The “Plant response rating (0 to 100), Wheat” value [8, 14] was 0, the “Plant response rating, Wheat” value [8, 15] was 20 and the “Plant response rating, Wheat” value [8, 16] was 5. For the same compound, the “Plant response rating (0 to 100), Velvetleaf” value [9, 14] was 10, the “Plant response rating, Velvetleaf” value [9, 15] was 45 and the “Plant response rating, Velvetleaf” value [9, 16] was 30. For the same compound, the “Plant response rating, Foxtail, Giant” value ([10]; 125 g ai/ha) was 90, the “Foxtail, Giant plant response rating” value [10] was 100 and the “Plant response rating (0 to 100), Waterhemp” value [11, 14] was 60. For the same compound, the “Plant response rating, Waterhemp” value [11, 15] was 90, the “Plant response rating, Waterhemp” value [11, 16] was 85 and the “Plant response rating, Corn” value ([12]; 125 g ai/ha) was 30. For the same compound, the “Plant response rating, Corn” value ([12]; 500 g ai/ha) was 50, the “Plant response rating (0 to 100), Blackgrass” value [13, 14] was 5 and the “Plant response rating, Blackgrass” value [13, 15] was 10. The “Plant response rating, Blackgrass” value ([13]; Postemergence, 31 g ai/ha, scale 0 to 100 (0 no effect, 100 complete control), 13 to 15 days) was 10 and the “Plant response rating, Blackgrass” value [13, 16] was 5.

In the case of N#Cc1cccc(Oc2ncc(Cl)cn2)c1-n1cc(SC(F)(F)F)cn1 [Compound 134, 3-[(5-chloro-2-pyrimidinyl)oxy]-2-[4-(trifluoromethylthio)-1-pyrazolyl]benzonitrile], the pest or weed control at 16 g/ha ([1]; Amaranthus retroflexus, post-emergence, 16 g ai/ha, postemergence, 0 is no effect, 100 is complete control, read-out: Plant response rating (0 to 100), Pigweed) is reported as 75%, the pest or weed control at 125 g/ha ([1]; Amaranthus retroflexus, post-emergence, 125 g ai/ha, postemergence, visual rating, scale 0 to 100 (0 no effect, 100 complete control), read-out: Plant response rating, Pigweed) is reported as 85% and the pest or weed control at 62 g/ha ([1]; Amaranthus retroflexus, post-emergence, Postemergence, 62 g ai/ha, scale 0 to 100 (0 no effect, 100 complete control), read-out: Plant response rating, Pigweed) is reported as 85%. The Soybean plant response rating (crop injury, 0-100 scale) at 16 g/ha ([2]; Glycine max, post-emergence, 16 g ai/ha, postemergence, 0 is no effect, 100 is complete control) was 60%, the Soybean plant response rating (crop injury, 0-100 scale) at 125 g/ha ([2]; Glycine max, post-emergence, 125 g ai/ha, postemergence, visual rating, scale 0 to 100 (0 no effect, 100 complete control), read-out: Plant response rating, Soybean) was 90% and the Soybean plant response rating (crop injury, 0-100 scale) at 62 g/ha ([2]; Glycine max, post-emergence, Postemergence, 62 g ai/ha, scale 0 to 100 (0 no effect, 100 complete control)) was 65%. The plant injury at 16 g/ha ([3]; Brassica napus, post-emergence, 16 g ai/ha, postemergence, 0 is no effect, 100 is complete control, read-out: Plant response rating (0 to 100), Oilseed Rape) was 5%, the plant injury at 125 g/ha ([3]; Brassica napus, post-emergence, 125 g ai/ha, postemergence, visual rating, scale 0 to 100 (0 no effect, 100 complete control), read-out: Plant response rating, Oilseed Rape) was 60% and the plant injury at 62 g/ha ([3]; Brassica napus, post-emergence, Postemergence, 62 g ai/ha, scale 0 to 100 (0 no effect, 100 complete control), read-out: Plant response rating, Oilseed Rape) was 70%. It also gave a pest or weed control at 16 g/ha ([4]; Ambrosia artemisiifolia, post-emergence, 16 g ai/ha, postemergence, 0 is no effect, 100 is complete control, read-out: Plant response rating (0 to 100), Ragweed) of 10%, a pest or weed control at 125 g/ha ([4]; Ambrosia artemisiifolia, post-emergence, 125 g ai/ha, postemergence, visual rating, scale 0 to 100 (0 no effect, 100 complete control), read-out: Plant response rating, Ragweed) of 55% and a pest or weed control at 62 g/ha ([4]; Ambrosia artemisiifolia, post-emergence, Postemergence, 62 g ai/ha, scale 0 to 100 (0 no effect, 100 complete control), read-out: Plant response rating, Ragweed) of 55%. For the same compound, the pest or weed control at 16 g/ha ([5]; Bassia scoparia, post-emergence, 16 g ai/ha, postemergence, 0 is no effect, 100 is complete control, read-out: Plant response rating (0 to 100), Kochia) was 75%, the pest or weed control at 125 g/ha ([5]; Bassia scoparia, post-emergence, 125 g ai/ha, postemergence, visual rating, scale 0 to 100 (0 no effect, 100 complete control), read-out: Plant response rating, Kochia) was 95% and the pest or weed control at 62 g/ha ([5]; Bassia scoparia, post-emergence, Postemergence, 62 g ai/ha, scale 0 to 100 (0 no effect, 100 complete control), read-out: Plant response rating, Kochia) was 95%. It also gave a pest or weed control at 16 g/ha ([6]; Sorghum halepense, post-emergence, 16 g ai/ha, postemergence, 0 is no effect, 100 is complete control, read-out: Plant response rating (0 to 100), Johnsongrass) of 5%, a pest or weed control at 125 g/ha ([6]; Sorghum halepense, post-emergence, 125 g ai/ha, postemergence, visual rating, scale 0 to 100 (0 no effect, 100 complete control), read-out: Plant response rating, Johnsongrass) of 15% and a pest or weed control at 62 g/ha ([6]; Sorghum halepense, post-emergence, Postemergence, 62 g ai/ha, scale 0 to 100 (0 no effect, 100 complete control), read-out: Plant response rating, Johnsongrass) of 5%. For the same compound, the pest or weed control at 16 g/ha ([7]; Galium, post-emergence, 16 g ai/ha, postemergence, 0 is no effect, 100 is complete control, read-out: Plant response rating (0 to 100), Galium) was 65%, the pest or weed control at 125 g/ha ([7]; Galium, post-emergence, 125 g ai/ha, postemergence, visual rating, scale 0 to 100 (0 no effect, 100 complete control), read-out: Plant response rating, Galium) was 85% and the pest or weed control at 62 g/ha ([7]; Galium, post-emergence, Postemergence, 62 g ai/ha, scale 0 to 100 (0 no effect, 100 complete control), read-out: Plant response rating, Galium) was 85%. For the same compound, the plant injury at 16 g/ha ([8]; Triticum aestivum, post-emergence, 16 g ai/ha, postemergence, 0 is no effect, 100 is complete control, read-out: Plant response rating (0 to 100), Wheat) was 0%, the plant injury at 125 g/ha ([8]; Triticum aestivum, post-emergence, 125 g ai/ha, postemergence, visual rating, scale 0 to 100 (0 no effect, 100 complete control), read-out: Plant response rating, Wheat) was 25% and the plant injury at 62 g/ha ([8]; Triticum aestivum, post-emergence, Postemergence, 62 g ai/ha, scale 0 to 100 (0 no effect, 100 complete control), read-out: Plant response rating, Wheat) was 5%. The pest or weed control at 16 g/ha ([9]; Abutilon theophrasti, post-emergence, 16 g ai/ha, postemergence, 0 is no effect, 100 is complete control, read-out: Plant response rating (0 to 100), Velvetleaf) was 30%, the pest or weed control at 125 g/ha ([9]; Abutilon theophrasti, post-emergence, 125 g ai/ha, postemergence, visual rating, scale 0 to 100 (0 no effect, 100 complete control), read-out: Plant response rating, Velvetleaf) was 55% and the pest or weed control at 62 g/ha ([9]; Abutilon theophrasti, post-emergence, Postemergence, 62 g ai/ha, scale 0 to 100 (0 no effect, 100 complete control), read-out: Plant response rating, Velvetleaf) was 50%. The “Foxtail, Giant plant response rating” value [10] was 100, the pest or weed control at 125 g/ha ([10]; Setaria faberi, pre-emergence, 240 h, 125 g ai/ha, read-out: Plant response rating, Foxtail, Giant) was 100% and the pest or weed control at 16 g/ha ([11]; Amaranthus tuberculatus, post-emergence, 16 g ai/ha, postemergence, 0 is no effect, 100 is complete control, read-out: Plant response rating (0 to 100), Waterhemp) was 55%. The pest or weed control at 125 g/ha ([11]; Amaranthus tuberculatus, post-emergence, 125 g ai/ha, postemergence, visual rating, scale 0 to 100 (0 no effect, 100 complete control), read-out: Plant response rating, Waterhemp) was 85%, the pest or weed control at 62 g/ha ([11]; Amaranthus tuberculatus, post-emergence, Postemergence, 62 g ai/ha, scale 0 to 100 (0 no effect, 100 complete control), read-out: Plant response rating, Waterhemp) was 60% and the “Plant response rating, Corn” value ([12]; 500 g ai/ha) was 60. For the same compound, the plant injury at 125 g/ha ([12]; Zea mays, post-emergence, 240 h, 125 g ai/ha, read-out: Corn plant response rating) was 40%, the pest or weed control at 16 g/ha ([13]; Alopecurus myosuroides, post-emergence, 16 g ai/ha, postemergence, 0 is no effect, 100 is complete control, read-out: Plant response rating (0 to 100), Blackgrass) was 5% and the pest or weed control at 125 g/ha ([13]; Alopecurus myosuroides, post-emergence, 125 g ai/ha, postemergence, visual rating, scale 0 to 100 (0 no effect, 100 complete control), read-out: Plant response rating, Blackgrass) was 10%. It also gave a pest or weed control at 31 g/ha ([13]; Alopecurus myosuroides, post-emergence, Postemergence, 31 g ai/ha, scale 0 to 100 (0 no effect, 100 complete control), 13 to 15 days, read-out: Plant response rating, Blackgrass) of 25% and a pest or weed control at 62 g/ha ([13]; Alopecurus myosuroides, post-emergence, Postemergence, 62 g ai/ha, scale 0 to 100 (0 no effect, 100 complete control), read-out: Plant response rating, Blackgrass) of 5%.
